Test results as given in patent US12428406B2 (PMV Pharmaceuticals, Inc., priority 2019, dated 2025).

Target: T1, p53 Y220C (Homo sapiens, UniProt P04637, Y220C)
T1 construct: The recombinant protein was a truncation mutant containing only amino acids 94-312 of p53; made in house; host or cells: E. coli
Test: In vitro DNA binding activity assay (HTRF / TR-FRET): stabilization of p53 Y220C and increase of its DNA binding activity
Type: biochemical
Settings: recombinant His-tagged p53 Y220C DNA binding domain (aa 94-312), biotin-labeled consensus DNA, incubated at 27° C. or 29° C. for 60 min
Method in brief: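 Test compounds, diluted 3-fold in DMSO from 4.5 mM stocks, were incubated with bacterially expressed His-tagged p53 Y220C at room temperature for 15 min, and after a further step for 20 min. DNA binding was detected by time-resolved FRET between APC and europium labels. SC150 marks the concentration increasing binding by 50%.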

T1 sequence (P04637 94-312, change not shown): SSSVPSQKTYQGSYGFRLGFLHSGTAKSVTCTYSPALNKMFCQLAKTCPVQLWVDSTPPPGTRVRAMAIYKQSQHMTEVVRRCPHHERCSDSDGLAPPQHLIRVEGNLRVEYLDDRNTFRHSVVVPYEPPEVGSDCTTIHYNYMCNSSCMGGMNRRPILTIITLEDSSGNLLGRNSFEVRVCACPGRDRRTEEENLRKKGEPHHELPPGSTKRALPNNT

| SMILES | SC150 (concentration of the compound required to increase the DNA binding activity by 50%) |
| --- | --- |
| COCCN(C)[C@H]1CC[C@@H](Nc2cccc3c2cc(C#CCNc2ccc(S(C)(=O)=O)cc2OC)n3CC(F)(F)F)CC1 [Compound 56A, (1S,4S)-N^4-(2-{3-[(4-methanesulfonyl-2-methoxyphenyl)amino]prop-1-yn-1-yl}-1-(2,2,2-trifluoroethyl)-1H-indol-4-yl)-N^1-(2-methoxyethyl)-N^1-methylcyclohexane-1,4-diamine] | + (+ = 0 μM ≤ SC150 < 0.05 μM) |
| COCCN(C)[C@H]1CC[C@H](Nc2cccc3c2cc(C#CCNc2ccc(S(C)(=O)=O)cc2OC)n3CC(F)(F)F)CC1 [Compound 57A, (1R,4R)-N^4-(2-{3-[(4-methanesulfonyl-2-methoxyphenyl)amino]prop-1-yn-1-yl}-1-(2,2,2-trifluoro-ethyl)-1H-indol-4-yl)-N^1-(2-methoxyethyl)-N^1-methylcyclohexane-1,4-diamine] | + (+ = 0 μM ≤ SC150 < 0.05 μM) |
| COc1cc(S(N)(=O)=O)ccc1NCC#Cc1cc2c(N[C@H]3CC[C@@H](N4C[C@H](O)[C@@H](O)C4)CC3)cccc2n1CC(F)(F)F [Compound 58A, 3-methoxy-4-{[3-(4-{[(1S,4S)-4-[(3S,4S)-3,4-dihydroxypyrrolidin-1-yl]cyclohexyl]amino}-1-(2,2,2-trifluoroethyl)-1H-indol-2-yl)prop-2-yn-1-yl]amino}benzene-1-sulfonamide] | + (+ = 0 μM ≤ SC150 < 0.05 μM) |
| COCCN(CCOC)[C@H]1CC[C@H](Nc2cccc3c2cc(C#CCNc2ccc(S(N)(=O)=O)cc2OC)n3CC(F)(F)F)CC1 [Compound 61A, 3-methoxy-4-{[3-(4-{[(1R,4R)-4-[bis(2-methoxyethyl)amino]cyclo-hexyl]amino}-1-(2,2,2-trifluoroethyl)-1H-indol-2-yl)prop-2-yn-1-yl]amino}benzene-1-sulfonamide] | + (+ = 0 μM ≤ SC150 < 0.05 μM) |
| COCCN(CCOC)[C@H]1CC[C@@H](Nc2cccc3c2cc(C#CCNc2ccc(S(N)(=O)=O)cc2OC)n3CC(F)(F)F)CC1 [Compound 62A, 3-methoxy-4-{[3-(4-{[(1S,4S)-4-[bis(2-methoxyethyl)amino]cyclo-hexyl]amino}-1-(2,2,2-trifluoroethyl)-1H-indol-2-yl)prop-2-yn-1-yl]amino}benzene-1-sulfonamide] | + (+ = 0 μM ≤ SC150 < 0.05 μM) |
| COc1cc(S(N)(=O)=O)ccc1NCC#Cc1cc2c(NC3CCC4(CC3)OCCO4)cccc2n1CC(F)(F)F [Compound 63A, 4-({3-[4-({1,4-dioxaspiro[4.5]decan-8-yl}amino)-1-(2,2,2-trifluoroethyl)-1H-indol-2-yl]prop-2-yn-1-yl}amino)-3-methoxy-benzene-1-sulfonamide] | + (+ = 0 μM ≤ SC150 < 0.05 μM) |
| COc1cc(S(C)(=O)=O)ccc1NCC#Cc1cc2c(NC3CCC4(CC3)OCCO4)cccc2n1CC(F)(F)F [Compound 64A, N-{1,4-dioxaspiro[4.5]decan-8-yl}-2-{3-[(4-methane-sulfonyl-2-methoxy-phenyl)amino]prop-1-yn-1-yl}-1-(2,2,2-trifluoroethyl)-1H-indol-4-amine] | + (+ = 0 μM ≤ SC150 < 0.05 μM) |
| COc1cc(S(N)(=O)=O)ccc1NCC#Cc1cc2c(NC3CCC(=O)CC3)cccc2n1CC(F)(F)F [Compound 65A, 3-methoxy-4-[(3-{4-[(4-oxocyclohexyl)amino]-1-(2,2,2-trifluoroethyl)-1H-indol-2-yl}prop-2-yn-1-yl)amino]benzene-1-sulfonamide] | + (+ = 0 μM ≤ SC150 < 0.05 μM) |
| COc1cc(S(C)(=O)=O)ccc1NCC#Cc1cc2c(NC3CCC(=O)CC3)cccc2n1CC(F)(F)F [Compound 66A, 4-[(2-{3-[(4-methane-sulfonyl-2-methoxy-phenyl)amino]prop-1-yn-1-yl}-1-(2,2,2-trifluoroethyl)-1H-indol-4-yl)amino]cyclo-hexan-1-one] | + (+ = 0 μM ≤ SC150 < 0.05 μM) |
| CNC(=O)c1ccc(NCC#Cc2cc3c(N[C@H]4CC[C@H](N(C)C)CC4)cccc3n2CC(F)(F)F)c(OC)c1 [Compound 74A, 3-methoxy-N-methyl-4-{[3-(4-{[(1R,4R)-4-(dimethylamino)cyclohexyl]amino}-1-(2,2,2-trifluoroethyl)-1H-indol-2-yl)prop-2-yn-1-yl]amino}benzamide] | + (+ = 0 μM ≤ SC150 < 0.05 μM) |
| COc1cc(S(C)(=O)=O)ccc1NCC#Cc1cc2c(N[C@H]3CC[C@H](N(C)C)CC3)cccc2n1CC1CO1 (stereo partly drawn) [Compound 77A, (1R,4R)—N^4-(2-{3-[(4-methanesulfonyl-2-methoxyphenyl)amino]prop-1-yn-1-yl}-1-[(oxiran-2-yl)methyl]-1H-indol-4-yl)-N^1,N^1-dimethylcyclohexane-1,4-diamine] | ++++ (++++ = 0.2 μM ≤ SC150 < 1 μM) |

Now from value to compound:

| SC150 (concentration of the compound required to increase the DNA binding activity by 50%) | SMILES |
| --- | --- |
| + (+ = 0 μM ≤ SC150 < 0.05 μM) | COc1cc(S(=O)(=O)Nc2cc(C)on2)ccc1NCC#Cc1cc2c(N[C@H]3CC[C@H](N(C)C)CC3)cccc2n1CC(F)(F)F [Compound 55A, 3-methoxy-N-(5-methyl-1,2-oxazol-3-yl)-4-{[3-(4-{[(1R,4R)-4-(dimethylamino)cyclohexyl]amino}-1-(2,2,2-trifluoroethyl)-1H-indol-2-yl)prop-2-yn-1-yl]amino}benzene-1-sulfonamide] |
| + (+ = 0 μM ≤ SC150 < 0.05 μM) | COc1cc(S(=O)(=O)N2CCOCC2)ccc1NCC#Cc1cc2c(N[C@H]3CC[C@H](N(C)C)CC3)cccc2n1CC(F)(F)F [Compound 67A, (1R,4R)-N^4-[2-(3-{[2-methoxy-4-(morpholine-4-sulfonyl)phenyl]amino}prop-1-yn-1-yl)-1-(2,2,2-trifluoro-ethyl)-1H-indol-4-yl]-N^1,N^1-dimethyl-cyclohexane-1,4-diamine] |
| + (+ = 0 μM ≤ SC150 < 0.05 μM) | COc1cc(S(=O)(=O)N2CCOCC2)ccc1NCC#Cc1cc2c(N[C@H]3CC[C@@H](N(C)C)CC3)cccc2n1CC(F)(F)F [Compound 68A, (1S,4S)-N4-[2-(3-{[2-methoxy-4-(morpholine-4-sulfonyl)phenyl]amino}prop-1-yn-1-yl)-1-(2,2,2-trifluoro-ethyl)-1H-indol-4-yl]-N^1,N^1-dimethyl-cyclohexane-1,4-diamine] |
| + (+ = 0 μM ≤ SC150 < 0.05 μM) | COc1cc(S(=O)(=O)N(CCO)CCO)ccc1NCC#Cc1cc2c(N[C@H]3CC[C@@H](N(C)C)CC3)cccc2n1CC(F)(F)F [Compound 69A, N,N-bis(2-hydroxyethyl)-3-methoxy-4-{[3-(4-{[(1S,4S)-4-(dimethyl-amino)cyclohexyl]amino}-1-(2,2,2-trifluoroethyl)-1H-indol-2-yl)prop-2-yn-1-yl]amino}benzene-1-sulfonamide] |
| + (+ = 0 μM ≤ SC150 < 0.05 μM) | COc1cc(S(=O)(=O)N(CCO)CCO)ccc1NCC#Cc1cc2c(N[C@H]3CC[C@H](N(C)C)CC3)cccc2n1CC(F)(F)F [Compound 70A, N,N-bis(2-hydroxyethyl)-3-methoxy-4-{[3-(4-{[(1R,4R)-4-(dimethyl-amino)cyclohexyl]amino}-1-(2,2,2-trifluoroethyl)-1H-indol-2-yl)prop-2-yn-1-yl]amino}benzene-1-sulfonamide] |
| + (+ = 0 μM ≤ SC150 < 0.05 μM) | CNS(=O)(=O)c1ccc(NCC#Cc2cc3c(N[C@H]4CC[C@H](N(C)C)CC4)cccc3n2CC(F)(F)F)c(OC)c1 [Compound 71A, 3-methoxy-N-methyl-4-{[3-(4-{[(1R,4R)-4-(dimethylamino)cyclohexyl]amino}-1-(2,2,2-trifluoroethyl)-1H-indol-2-yl)prop-2-yn-1-yl]amino}benzene-1-sulfonamide] |
| + (+ = 0 μM ≤ SC150 < 0.05 μM) | CNS(=O)(=O)c1ccc(NCC#Cc2cc3c(N[C@H]4CC[C@@H](N(C)C)CC4)cccc3n2CC(F)(F)F)c(OC)c1 [Compound 72A, 3-methoxy-N-methyl-4-{[3-(4-{[(1S,4S)-4-(dimethylamino)cyclohexyl]amino}-1-(2,2,2-trifluoroethyl)-1H-indol-2-yl)prop-2-yn-1-yl]amino}benzene-1-sulfonamide] |
| + (+ = 0 μM ≤ SC150 < 0.05 μM) | COc1cc(C(N)=O)ccc1NCC#Cc1cc2c(N[C@H]3CC[C@H](N(C)C)CC3)cccc2n1CC(F)(F)F [Compound 73A, 3-methoxy-4-{[3-(4-{[(1R,4R)-4-(dimethyl-amino)cyclohexyl]amino}-1-(2,2,2-trifluoroethyl)-1H-indol-2-yl)prop-2-yn-1-yl]amino}benzamide] |
| ++ (++ = 0.05 μM ≤ SC150 < 0.1 μM) | CNC(=O)c1ccc(NCC#Cc2cc3c(N[C@H]4CC[C@@H](N(C)C)CC4)cccc3n2CC(F)(F)F)c(OC)c1 [Compound 75A, 3-methoxy-N-methyl-4-{[3-(4-{[(1S,4S)-4-(dimethylamino)cyclohexyl]amino}-1-(2,2,2-trifluoroethyl)-1H-indol-2-yl)prop-2-yn-1-yl]amino}benzamide] |
| + (+ = 0 μM ≤ SC150 < 0.05 μM) | COc1cc(S(=O)(=O)N2CCN(C)CC2)ccc1NCC#Cc1cc2c(N[C@H]3CC[C@H](N(C)C)CC3)cccc2n1CC(F)(F)F [Compound 76A, (1R,4R)-N^4-{2-[3-({2-methoxy-4-[(4-methylpiperazin-1-yl)sulfonyl]phenyl}amino)prop-1-yn-1-yl]-1-(2,2,2-trifluoroethyl)-1H-indol-4-yl}-N^1,N^1-dimethyl-cyclohexane-1,4-diamine] |
